Measured values from article PMC6151961 (Journal of Enzyme Inhibition and Medicinal Chemistry, 2018).

The compounds below were run against CA IX (Homo sapiens, UniProt Q16790) (assay: biochemical). Conditions: not given.

Row | Structure (SMILES) | log10 of Ki in nM
1 | NS(=O)(=O)c1ccc(CNC(=S)N[C@@H]2O[C@H](CO)[C@@H](O)[C@H](O)[C@H]2O)cc1 [A0577] | 0.944
2 | CCOc1nc(NCCc2ccc(S(N)(=O)=O)cc2)nc(OCC)n1 [A0719] | 1.079
3 | Nc1c(C(=O)N/N=C2\C(=O)N(Cc3ccccc3)c3ccccc32)cnn1-c1ccc(S(N)(=O)=O)cc1 [A0861] | 1.301
4 | Nc1c(Cl)cc(S(=O)(=O)Nc2nnc(S(N)(=O)=O)s2)cc1Br [A0922] | 1.362
5 | NS(=O)(=O)c1ccc(-c2cn([C@@H]3O[C@H](CO)[C@@H](O)[C@H](O)[C@H]3O)nn2)cc1 [A1466] | 1.897
6 | NS(=O)(=O)c1ccc(-c2cccc(C=O)c2)cc1 [A1584] | 1.993
7 | CC(=O)OC[C@H]1O[C@@H](n2cc(-c3ccc(S(N)(=O)=O)cc3)nn2)[C@H](OC(C)=O)[C@@H](OC(C)=O)[C@@H]1OC(C)=O [A1660] | 2.079
8 | COC(=O)[C@H]1O[C@@H](n2cc(COC(=O)c3ccc(S(N)(=O)=O)cc3)nn2)[C@H](OC(C)=O)[C@@H](OC(C)=O)[C@@H]1OC(C)=O [A1674] | 2.097
9 | CCCCCOS(N)(=O)=O [A1675] | 2.100
10 | CC(=O)NNc1ccccc1S(N)(=O)=O [A1755] | 2.243
11 | NS(=O)(=O)c1ccc(C(=O)NCc2cn([C@@H]3O[C@H](CO)[C@H](O)[C@H](O)[C@H]3O)nn2)cc1 [A1960] | 2.556
12 | CCOC(=O)c1cc(O)ccc1O [A2120] | 2.934

Same assay, conditions: experimental value from the library Ki (IDs A…, B…); values equal log10 of Ki in nM

Row | Structure (SMILES) | log10 of Ki in nM
13 | COC(=O)c1cn(-c2ccc(S(N)(=O)=O)cc2)nc1-c1ccc(F)cc1 [A0626] | 0.973
14 | N#C/C(=C\c1ccc2c(c1)OCO2)C(=O)Nc1ccc(S(N)(=O)=O)cc1 [A0636] | 0.978
15 | O=C1c2ccccc2S(=O)(=O)N1Cc1cccc([N+](=O)[O-])c1 [A0700] | 1.041
16 | NS(=O)(=O)c1ccc(C(=O)NCCc2ccc(O)c(O)c2)cc1 [A0813] | 1.230
17 | NS(=O)(=O)c1cnccc1-n1ccc(=O)cc1 [A0836] | 1.262
18 | COc1ccc(-c2cc(CO)nn2-c2ccc(S(N)(=O)=O)cc2)cc1 [A0859] | 1.301
19 | Cc1ccc(-c2cc(CO)nn2-c2ccc(S(N)(=O)=O)cc2)cc1 [A0902] | 1.342
20 | O=c1ccc2ccc(OCc3cn(-c4ccc(C(F)(F)F)cc4)nn3)cc2o1 [A0920] | 1.362
21 | CCCN(CCC)S(=O)(=O)c1ccc(C(=O)N[C@@H](CCC(=O)O)C(N)=O)cc1 [A0921] | 1.362
22 | CCCN(CCC)S(=O)(=O)c1ccc(C(=O)N[C@@H](Cc2c[nH]c3ccccc23)C(N)=O)cc1 [A0923] | 1.362
23 | CCOC(=O)NC(=S)N(CC(=O)c1ccccc1)c1ccc(S(N)(=O)=O)cc1 [A0977] | 1.398
24 | COc1ccc(-c2cn(-c3ccc(S(N)(=O)=O)cc3)c(=S)[nH]2)cc1 [A1063] | 1.477
25 | Cc1ccc(-c2nn(-c3ccc(S(N)(=O)=O)cc3)cc2-c2nc3ccccc3[nH]2)cc1 [A1267] | 1.693
26 | NS(=O)(=O)Nc1ccc(S(=O)(=O)Nc2nnc(S(N)(=O)=O)s2)cc1 [A1288] | 1.716
27 | COc1cccc(C(=O)CN2C(=O)C=C(C)OS2(=O)=O)c1 [A1737] | 2.207
28 | COc1ccc2c(c1)/C(=N/c1ccc(C(=O)Nc3ccc(S(N)(=O)=O)cc3)cc1)C(=O)N2 [A1756, reference compound] | 2.243
29 | CCCN(CCC)S(=O)(=O)c1ccc(C(=O)Nc2ccccc2[N+](=O)[O-])cc1 [A1771] | 2.283
30 | CCCN(CCC)S(=O)(=O)c1ccc(C(=O)N[C@@H](CS)C(=O)O)cc1 [A1793] | 2.305
31 | NS(=O)(=O)c1ccc(NC(=O)c2ccc(/N=C3\C(=O)Nc4ccc([N+](=O)[O-])cc43)cc2)cc1 [A1847] | 2.375
32 | CCCCC(=O)OC[C@H]1O[C@@H](n2cc(-c3ccc(S(N)(=O)=O)cc3)nn2)[C@H](OC(=O)CCCC)[C@@H](OC(=O)CCCC)[C@H]1OC(=O)CCCC [A1944] | 2.525
33 | NS(=O)(=O)c1ccc(NC(=O)N2CCN(CCO)CC2)cc1 [A1995] | 2.639
34 | NS(=O)(=O)c1ccc(CNC(=O)CCCNC(=O)NCc2ccccc2)cc1 [A2003] | 2.660

Same assay, conditions: experimental value used for the QSPR model, library compounds (IDs A…, B…); equals log10 of Ki in nM

Row | Structure (SMILES) | log10 of Ki in nM
35 | NS(=O)(=O)c1ccc(CCNC(=S)Nc2ccc(C(=O)O)cc2)cc1 [A0666] | 1.000
36 | NS(=O)(=O)c1ccc(OCCN2CCOCC2)cc1 [A0728] | 1.100
37 | NS(=O)(=O)c1ccc(Nc2nc(Nc3ccccc3)nc(N3CCOCC3)n2)cc1 [A0867] | 1.303
38 | NS(=O)(=O)c1ccc(/N=C/c2ccccc2)c(F)c1 [A1026] | 1.447
39 | CCCC(=O)OC[C@H]1O[C@@H](n2cc(-c3ccc(S(N)(=O)=O)cc3)nn2)[C@H](OC(=O)CCC)[C@@H](OC(=O)CCC)[C@H]1OC(=O)CCC [A1285] | 1.714
40 | O=S1(=O)C=Cc2cc(-n3cc(C4CC4)nn3)ccc2O1 [A1333] | 1.782
41 | O=S1(=O)C=Cc2cc(-n3cnnn3)ccc2O1 [A1395] | 1.836
42 | CC(=O)OC[C@H]1O[C@@H](SCc2nnn(-c3ccc(S(N)(=O)=O)cc3)c2C#CCO)[C@H](OC(C)=O)[C@@H](OC(C)=O)[C@@H]1OC(C)=O [A1422] | 1.857
43 | NS(=O)(=O)c1cccc(-c2cn([C@@H]3O[C@H](CO)[C@@H](O)[C@H](O)[C@H]3O)nn2)c1 [A1463] | 1.893
44 | CC(C)(F)CNS(=O)(=O)c1ccc(N)cc1 [A1490] | 1.919
45 | Cc1c(C(=O)NCCN(C)C)cc(-c2ccc(-c3ccccc3)cc2)n1-c1ccc(S(N)(=O)=O)cc1 [A1493] | 1.919
46 | Nc1c(Br)cc(S(N)(=O)=O)cc1I [A1512] | 1.934
47 | Cc1cc(C)c(S(=O)(=O)Nc2ccc(C3C4=C(CC(C)(C)CC4=O)N(c4ccc(S(N)(=O)=O)cc4)C4=C3C(=O)CC(C)(C)C4)cc2)c(C)c1 [A1534] | 1.954
48 | N#Cc1c(-c2ccc(Br)cc2)cn(-c2ccc(S(N)(=O)=O)cc2)c1NC(=S)Nc1ccc(Br)cc1 [A1551] | 1.960
49 | Cc1ccc(-n2c(=S)[nH]c3c(c(-c4ccc(Br)cc4)cn3-c3ccc(S(N)(=O)=O)cc3)c2=N)cc1 [A1740] | 2.210

Same assay, conditions: library compounds with IDs A… and B…; from observed Ki (nM)

Row | Structure (SMILES) | log10 of Ki in nM
50 | CCOC(=O)c1ccc(NC(=O)NNC(=O)c2ccc(S(N)(=O)=O)cc2)cc1 [A0551] | 0.929
51 | O=S1(=O)C=Cc2cc(-n3cc(-c4cccc(F)c4)nn3)ccc2O1 [A0598] | 0.954
52 | O=S1(=O)C=Cc2cc(-n3nncc3-c3cccc(C(F)(F)F)c3)ccc2O1 [A0646] | 0.982
53 | NS(=O)(=O)OC1CCN(S(=O)(=O)[C@@H]2O[C@H](CO)[C@@H](O)[C@H](O)[C@H]2O)CC1 [A0701] | 1.041
54 | NS(=O)(=O)c1ccc(-n2cc(-c3ccc(Br)cc3)c3c2N=CN2NC(=O)CN=C32)cc1 [A0710] | 1.068
55 | CCCN(CCC)S(=O)(=O)c1ccc(C(=O)N[C@@H](CCSC)C(N)=O)cc1 [A0860] | 1.301
56 | Cc1cc(=O)oc2cc(-n3cc(CSc4ccccc4)nn3)ccc12 [A1053] | 1.471
57 | Fc1ccc(-c2nn(-c3ccccc3)cc2-c2nc3ccccc3[nH]2)cc1 [A1367] | 1.813
58 | Cc1nnnn1-c1ccc2c(c1)C=CS(=O)(=O)O2 [A1375] | 1.819
59 | NS(=O)(=O)c1ccc(-n2cc(CO[C@@H]3O[C@H](COCc4ccccc4)[C@@H](OCc4ccccc4)[C@H]3OCc3ccccc3)nn2)cc1 [A1497] | 1.924
60 | Cc1cc(C)c(S(=O)(=O)Nc2cccc(C3C4=C(CC(C)(C)CC4=O)N(c4ccc(S(N)(=O)=O)cc4)C4=C3C(=O)CC(C)(C)C4)c2)c(C)c1 [A1535] | 1.954
61 | O=C1NS(=O)(=O)c2cc([N+](=O)[O-])ccc21 [A1570] | 1.981
62 | NS(=O)(=O)c1ccc2nc(-n3cc(/C=N/O)c(-c4ccc([N+](=O)[O-])cc4)n3)sc2c1 [A1655] | 2.076
63 | Cc1c(C(=O)N2CCN(C)CC2)cc(-c2ccc3ccccc3c2)n1-c1ccc(S(N)(=O)=O)cc1 [A1687] | 2.124
64 | NS(=O)(=O)c1ccc(CNC(=O)Cc2ccccc2)cc1 [A1701] | 2.134
65 | COc1ccc(NC(=S)Nc2c(C#N)c(-c3ccc(Br)cc3)cn2-c2ccc(S(N)(=O)=O)cc2)cc1 [A1714] | 2.149
66 | CCCN(CCC)S(=O)(=O)c1ccc(C(=O)NCC)cc1 [A1724] | 2.179
67 | NS(=O)(=O)c1ccc(/N=c2\scc(-c3ccc(Br)cc3)n2C2CCCCC2)cc1 [A1905] | 2.442
68 | Cc1ccc(-c2cnc(C3CC3)o2)cc1S(N)(=O)=O [A1938] | 2.502
69 | CC1(C)CC(=O)C2=C(C1)N(c1ccc(S(N)(=O)=O)cc1)C1=C(C(=O)CC(C)(C)C1)C2c1cccc([N+](=O)[O-])c1 [A1986] | 2.623
70 | Cc1cc(C)cc(NC(=O)Nc2ccc3c(C)cc(=O)oc3c2)c1 [A2046] | 2.785
